“Also recorded” adds a separate entry of the source. Read-outs that look alike come from different tables or passages of the source.
Key:
[1] = assay type: physicochemical; conditions: for Precipitation Time (earliest among triplicate samples): Cremophor EL 8.3%
Description: Physical stability testing of extended stability formulations has been evaluated for the effects of changing alcohol concentration on precipitation times in infusion solutions.
In the 15 to 20% range, the time to precipitation varied from about 9 to 14 days in most samples. […] Within the 15 to 20% group, however, the time to precipitation was variable and not linearly related to alcohol content.
^a Cremophor ® EL concentration held constant at 8.3%, the same a
^b Earliest precipitation among triplicate samples.

[2] = Visual examination of paclitaxel test solutions (physical compatibility); assay type: physicochemical; set-up: key to Visual observation: --: Light blue hazy solution free of particulate matter; conditions: for Visual observation, all samples: days 1 and 3
Description: (§1) Aliquots were removed from each bag initially and after 1, 3, 5, and 7 days and stored in 2-ml sterile vials at -70° C. Grossly precipitated solutions were assayed after 31 days of storage. Duplicate HPLC determinations were performed on the aliquots from each test solution.
(§2) Physical compatibility was evaluated by visual examination and turbidimetric quantification. […] The tubes and caps were triple-washed in high-performance liquid chromatography-grade water and rinsed exteriorly with ethanol. To minimize the effects of scratches and imperfections in the glass, a thin layer of silicone oil was applied to the exterior of the culture tubes.
Visual examination of the samples was performed with the unaided eye in normal laboratory fluorescent light. Samples with no obvious visual incompatibility were further examined using a Tyndall beam (high-intensitymonodirectional light source)(Dolan-Jenner, Woburn, Mass.). The test tubes were illuminated from below and viewed at a 90° angle against a dark background to enhance the visibility of small particles.
(§3) Visual inspections and turbidimetric assessments were performed initially and after 1, 3, 5, 7, 14, and 31 days of storage at each temperature protected from light.

[3] = Turbidimetric assessment of paclitaxel test solutions; assay type: physicochemical; conditions: during the study
Description: as §1, §2
Turbidimetric assessments of the normally hazy paclitaxel solutions were made using a color-correcting turbidimeter (Hatch, Loveland, Colo.). The turbidimeter was calibrated in the manner described previously (Trissel et al., 1992). Triplicate determinations were made for each sample; the turbidimeter was allowed to return to zero between determinations. Incompatibility has been defined as an increase in turbidity of 0.5 nephelometric turbidity unit (NTU) or more (Trissel et al., 1993).
as §3

[4] = Chemical stability of paclitaxel in infusion solutions by HPLC; assay type: physicochemical; conditions: 0.1 and 1 mg/mL; D5W and 0.9% NaCl
Description: The liquid chromatograph consisted of a multisolvent delivery pump (Waters Chromatography, Milford, Mass.), a programmable multiple-wavelength ultraviolet light detector (Waters), a WISP autosampler,(Waters) and a HPLC analytical column (Vydac, Hesperia, Calif.) (250×4.6 mm, 5 μm particle size). The system was controlled and integrated by a personal computer (NEC, Boxborough, Mass.). The mobile phase consisted of 53% acetonitrile in water. The flow rate was 1.5 ml/min and detection was performed at 254 nm. […] Sample aliquots were filtered through 5 μm filter needle.
Precision expressed as percent relative standard deviation was 0.76%. Calibration curves were constructed from a linear plot of peak area versus concentration (0,025 to 0.15 mg/mL). […] The intra-day and inter-day coefficients of variation were 1.4% and 2.0%, respectively.
Aliquots were removed from each bag initially and after 1, 3, 5, and 7 days and stored in 2-ml sterile vials at -70° C. […] Duplicate HPLC determinations were performed on the aliquots from each test solution.

tubulin = conditions: cited from earlier work
cell replication = conditions: in vitro; cited from earlier work
lymphoma, breast cancer = conditions: cited from earlier work
[5] = cited from earlier work

## CC(=O)O[C@H]1C(=O)[C@@]2(C)[C@H]([C@H](OC(=O)c3ccccc3)[C@]3(O)C[C@H](OC(=O)[C@H](O)[C@@H](NC(=O)c4ccccc4)c4ccccc4)C(C)=C1C3(C)C)[C@]1(OC(C)=O)CO[C@@H]1C[C@@H]2O [paclitaxel]
[1]; 1 mg/mL in D5W, alcohol 15%
  Precipitation Time (earliest among triplicate samples): 14 days
[1]; 1 mg/mL in D5W, alcohol 16%
  Precipitation Time (earliest among triplicate samples): 12 days
[1]; 1 mg/mL in D5W, alcohol 17%
  Precipitation Time (earliest among triplicate samples): 10 days
[1]; 1 mg/mL in D5W, alcohol 18%
  Precipitation Time (earliest among triplicate samples): 12 days
[1]; 1 mg/mL in D5W, alcohol 19%
  Precipitation Time (earliest among triplicate samples): 9 days
[1]; 1 mg/mL in D5W, alcohol 20%
  Precipitation Time (earliest among triplicate samples): 9 days
[1]; 1 mg/mL in D5W, alcohol 25%
  gross precipitation: 21 days
  Precipitation Time (earliest among triplicate samples): 14 days
[1]; 1 mg/mL in D5W, alcohol 25%, one sample
  earliest microprecipitation: 14 days
[1]; 1 mg/mL in D5W, alcohol 30%
  Precipitation Time (earliest among triplicate samples): > 60 days
[1]; 1 mg/mL in D5W, alcohol 30 and 50%, any sample
  storage time without precipitation or microcrystals: > 60 days
[1]; 1 mg/mL in D5W, alcohol 50%
  Precipitation Time (earliest among triplicate samples): > 60 days
[1]; alcohol 19% and 20% (footnote c)
  precipitation among triplicate samples: One sample precipitated at 9 days, 2 samples at 14 days or more.
[1]; alcohol 25% (footnote d)
  precipitation among triplicate samples: One sample did not precipitated after 60 days.
[1]; alcohol 30% and 50% (footnote e)
  precipitation among triplicate samples: All three samples were still in solution after 60 days.
[2]; 0.1 and 1 mg/mL, D5W and 0.9% NaCl
  precipitation observed visually / by Tyndall beam: all samples were initially free of particulate matter but had paclitaxel's normal haze; also recorded: Large amounts of white flocculent precipitate appeared after 31 days of storage in many of the samples and after 14 days in a few samples; also recorded: Two samples had small amounts of crystalline precipitate within five days of storage; also recorded: Most samples had crystalline precipitation within a week
[2]; 0.1 and 1 mg/mL, D5W and 0.9% NaCl, 4, 22, 32 °C
  chemical stability and physical compatibility time: All samples remained compatible in both infusion solutions for at least three days; also recorded: chemically stable and physically compatible for three days
[2]; 0.9% NaCl, 0.1 mg/mL, 4 °C, day 0
  Visual observation: --
[2]; 0.9% NaCl, 0.1 mg/mL, 4 °C, day 7
  Visual observation: Tiny crystals
[2]; 0.9% NaCl, 0.1 mg/mL, 22 °C, day 0
  Visual observation: --
[2]; 0.9% NaCl, 0.1 mg/mL, 22 °C, day 5
  Visual observation: --
[2]; 0.9% NaCl, 0.1 mg/mL, 22 °C, day 7
  Visual observation: Tiny crystals
[2]; 0.9% NaCl, 0.1 mg/mL, 32 °C, day 0
  Visual observation: --
[2]; 0.9% NaCl, 0.1 mg/mL, 32 °C, day 5
  Visual observation: --
[2]; 0.9% NaCl, 0.1 mg/mL, 32 °C, day 7
  Visual observation: Tiny crystals
[2]; 0.9% NaCl, 1 mg/mL, 4 °C, day 0
  Visual observation: --
[2]; 0.9% NaCl, 1 mg/mL, 4 °C, day 5
  Visual observation: --
[2]; 0.9% NaCl, 1 mg/mL, 4 °C, day 7
  Visual observation: Tiny crystals
[2]; 0.9% NaCl, 1 mg/mL, 22 °C, day 0
  Visual observation: --
[2]; 0.9% NaCl, 1 mg/mL, 22 °C, day 5
  Visual observation: --
[2]; 0.9% NaCl, 1 mg/mL, 22 °C, day 7
  Visual observation: Tiny crystals
[2]; 0.9% NaCl, 1 mg/mL, 32 °C, day 0
  Visual observation: --
[2]; 0.9% NaCl, 1 mg/mL, 32 °C, day 5
  Visual observation: --
[2]; 0.9% NaCl, 1 mg/mL, 32 °C, day 7
  Visual observation: Tiny crystals
[2]; 0.9% NaCl, 1 mg/mL, 32 °C, day 14
  Visual observation: Tiny crystals
[2]; 0.9% NaCl
  Visual observation, all samples: particulatefree
[2]; 5% dextrose, 0.1 mg/mL, 4 °C, day 0
  Visual observation: --
[2]; 5% dextrose, 0.1 mg/mL, 4 °C, day 5
  Visual observation: --
[2]; 5% dextrose, 0.1 mg/mL, 4 °C, day 7
  Visual observation: --
[2]; 5% dextrose, 0.1 mg/mL, 4 °C, day 14
  Visual observation: --
[2]; 5% dextrose, 0.1 mg/mL, 22 °C, day 0
  Visual observation: --
[2]; 5% dextrose, 0.1 mg/mL, 22 °C, day 5
  Visual observation: --
[2]; 5% dextrose, 0.1 mg/mL, 32 °C, day 0
  Visual observation: --
[2]; 5% dextrose, 0.1 mg/mL, 32 °C, day 5
  Visual observation: --
[2]; 5% dextrose, 1 mg/mL, 4 °C, day 0
  Visual observation: --
[2]; 5% dextrose, 1 mg/mL, 22 °C, day 0
  Visual observation: --
[2]; 5% dextrose, 1 mg/mL, 22 °C, day 5
  Visual observation: --
[2]; 5% dextrose, 1 mg/mL, 32 °C, day 0
  Visual observation: --
[2]; 5% dextrose, 1 mg/mL, 32 °C, day 5
  Visual observation: --
[2]; 5% dextrose
  Visual observation, all samples: particulatefree
[3]
  change in turbidity: did not result in any change during the study except for samples with noticeable precipitation
[4]
  decomposition products on HPLC chromatograms: No decomposition products appeared on the HPLC chromatograms
tubulin
  tubulin polymerization: markedly enhances all aspects of tubulin polymerization; initiation and elongation are more rapid
Cell replication
  inhibition of cell replication: potent inhibitor of cell replication in vitro
lymphoma, breast cancer
  activity in clinical trials: has shown activity against lymphoma, breast cancer, and possibly other tumors
[5]; clinical formulation diluted in intravenous infusion fluids
  appearance after dilution in infusion fluids: slight haze and, occasionally, a few minute particles
[5]; clinical formulation
  physical stability in aqueous solutions: physically unstable, and in aqueous solutions exhibits the formation of paclitaxel precipitate
